Where a name gives a salt, the structure may show the parent alone.
Legend:
[1] = pKa and LogP determination with a Sirius GLPKa instrument; assay type: physicochemical
[2] = target: T1, cardiac L-type calcium channel (Homo sapiens, UniProt Q13936); experiment: Calcium current (ICa) block, whole-cell patch clamp in isolated human atrial myocytes; assay type: cell-based; conditions: for Fold Difference (Parent vs. Derivative): ratio of IC50 at 0.1 Hz, derivative vs. dantrolene; for IC50: read-out: IC50 at 0.1 Hz
T1 construct: Human myocytes were obtained from specimens of human right atrial appendage obtained during surgery; endogenous in cells; host or cells: primary human atrial myocytes isolated from right atrial appendage
Description: Human myocytes were obtained from specimens of human right atrial appendage obtained during surgery from hearts of patients undergoing cardiopulmonary bypass. The isolation procedure produced rod-shaped, calcium tolerant cells which were used within 24 hours after isolation (Crumb et al., (1995) Am J Physiol 268:H1335-H1342).
The whole-cell patch clamp technique was carried out at 23±1° C. with precise micromanipulation under high power visual magnification to measure calcium currents. Glass pipettes were fire polished to produce tip diameters of 1-4 μm. The tip of the pipette, filled with electrolyte “internal” solution (a composition of (mM): 120 CsCl, 20 TEACl, 5 NaCl, 1 CaCl2, 10 EGTA, 10 HEPES, 5 MgATP, 0.2 Na2GTP, adjusted to pH 7.2 with CsOH) was positioned onto a cell. The cell was in a bathing “external” solution (consisting of (mM): 1.8 CaCl2, 137 NaCl, 20 CsCl, 4 KCl, 1 MgCl2, 10 HEPES, 10 dextrose, pH=7.4 with NaOH). Pipette tip resistance was approximately 1.0 to 2.0 MΩ when filled with the internal solution. Suction was then applied to the pipette interior to seal the cell membrane onto the tip. Another suction pulse then broke the membrane, establishing electrical access into the interior of the cell. The cellular interior then became dialysed by the solution the patch pipette was filled with.
After rupture of the cell membrane (entering whole-cell mode), current kinetics and amplitudes were allowed to stabilize (currents elicited by a series of voltage pulses given at 0.1 Hz were superimposed) as the cell was dialyzed with internal solution and paced at 1 Hz (3-5 minutes). Calcium current (ICa) was measured using a voltage pulse to 0 mV (200 ms duration) from a holding potential of −60 mV. Only a pacing rate of 0.1 Hz was used. Test article, at concentrations of 0.1, 1, 3, 10, 30, and […] was added in a cumulative manner to a cell.
Currents and voltages were recorded with patch-clamp amplifiers (Axopatch 1-B, Axon Instruments, Foster City, Calif.). Creation of voltage clamp pulses and data acquisition was controlled by a computer using electrophysiology software (pCLAMP version 9.2, Axon Instruments, Foster City, Calif.). […] Each cell served as its own control.
All stock solutions (10 mM) were made by adding DMSO directly into the bottle containing the test article.
Approximate IC50 values (Table 1) were obtained from non-linear regression analysis of dose-response curves (FIG. 1) using GraphPad's Prism 5.01 software. Data was also analyzed for mean percent inhibition±SEM at the highest concentration tested, 100 μM (FIG. 2).
To test for cell sensitivity, 0.1 μM nisoldipine was added after exposure to test article.

T1 sequence (Q13936 whole entry): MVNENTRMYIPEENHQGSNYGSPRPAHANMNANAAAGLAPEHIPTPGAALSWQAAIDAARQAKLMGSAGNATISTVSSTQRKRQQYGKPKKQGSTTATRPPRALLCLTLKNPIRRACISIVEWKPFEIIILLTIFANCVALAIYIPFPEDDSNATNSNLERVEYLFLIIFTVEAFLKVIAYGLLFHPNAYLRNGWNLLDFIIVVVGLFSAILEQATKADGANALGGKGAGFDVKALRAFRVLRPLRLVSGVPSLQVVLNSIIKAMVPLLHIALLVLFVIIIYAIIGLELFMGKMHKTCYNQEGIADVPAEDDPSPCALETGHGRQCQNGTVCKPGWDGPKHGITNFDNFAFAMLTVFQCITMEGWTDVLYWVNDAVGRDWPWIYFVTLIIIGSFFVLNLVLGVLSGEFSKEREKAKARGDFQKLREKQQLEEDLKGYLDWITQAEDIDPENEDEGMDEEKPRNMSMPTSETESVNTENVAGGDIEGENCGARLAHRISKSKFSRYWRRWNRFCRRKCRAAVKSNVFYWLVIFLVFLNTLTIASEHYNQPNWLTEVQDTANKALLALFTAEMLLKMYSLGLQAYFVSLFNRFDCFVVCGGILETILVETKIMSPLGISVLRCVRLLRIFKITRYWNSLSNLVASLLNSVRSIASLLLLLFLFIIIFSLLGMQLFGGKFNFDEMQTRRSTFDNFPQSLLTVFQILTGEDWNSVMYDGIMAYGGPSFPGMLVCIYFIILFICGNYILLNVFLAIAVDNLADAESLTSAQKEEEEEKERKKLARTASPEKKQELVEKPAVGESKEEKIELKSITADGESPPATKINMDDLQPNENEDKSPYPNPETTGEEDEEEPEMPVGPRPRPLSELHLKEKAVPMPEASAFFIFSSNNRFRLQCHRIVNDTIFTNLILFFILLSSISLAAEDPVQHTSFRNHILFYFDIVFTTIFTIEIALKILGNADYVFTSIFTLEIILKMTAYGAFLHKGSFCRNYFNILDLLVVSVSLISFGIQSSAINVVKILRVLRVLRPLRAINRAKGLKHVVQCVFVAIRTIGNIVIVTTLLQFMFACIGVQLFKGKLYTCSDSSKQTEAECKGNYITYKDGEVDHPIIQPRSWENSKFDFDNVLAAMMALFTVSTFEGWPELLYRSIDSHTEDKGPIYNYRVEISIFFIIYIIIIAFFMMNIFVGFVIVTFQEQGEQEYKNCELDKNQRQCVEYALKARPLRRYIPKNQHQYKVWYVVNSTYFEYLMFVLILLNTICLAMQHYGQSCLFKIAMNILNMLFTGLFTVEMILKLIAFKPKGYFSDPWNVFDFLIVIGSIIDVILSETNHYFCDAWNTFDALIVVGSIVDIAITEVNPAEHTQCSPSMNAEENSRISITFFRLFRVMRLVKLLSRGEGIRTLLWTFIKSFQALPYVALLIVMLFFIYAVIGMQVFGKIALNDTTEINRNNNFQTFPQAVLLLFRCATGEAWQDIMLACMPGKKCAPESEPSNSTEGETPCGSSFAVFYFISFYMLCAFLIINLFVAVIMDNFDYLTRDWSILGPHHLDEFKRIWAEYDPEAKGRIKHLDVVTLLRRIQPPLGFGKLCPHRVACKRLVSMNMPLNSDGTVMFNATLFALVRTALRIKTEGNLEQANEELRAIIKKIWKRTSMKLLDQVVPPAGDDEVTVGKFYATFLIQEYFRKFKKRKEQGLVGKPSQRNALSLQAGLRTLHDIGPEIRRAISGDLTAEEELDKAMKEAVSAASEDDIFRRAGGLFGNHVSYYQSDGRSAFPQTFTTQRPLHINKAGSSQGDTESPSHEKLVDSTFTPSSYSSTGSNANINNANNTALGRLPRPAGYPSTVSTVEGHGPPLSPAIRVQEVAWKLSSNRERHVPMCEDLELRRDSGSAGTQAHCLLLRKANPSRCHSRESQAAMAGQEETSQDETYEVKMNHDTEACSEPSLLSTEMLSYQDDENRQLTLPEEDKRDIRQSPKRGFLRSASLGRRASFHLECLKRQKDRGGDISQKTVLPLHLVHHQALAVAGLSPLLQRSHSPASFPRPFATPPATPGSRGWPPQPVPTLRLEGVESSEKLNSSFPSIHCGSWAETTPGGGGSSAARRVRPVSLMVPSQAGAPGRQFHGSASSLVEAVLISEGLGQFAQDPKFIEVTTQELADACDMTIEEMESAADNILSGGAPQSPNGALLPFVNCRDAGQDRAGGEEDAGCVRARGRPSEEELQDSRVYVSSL
T1 sequence (Q08289 whole entry partner): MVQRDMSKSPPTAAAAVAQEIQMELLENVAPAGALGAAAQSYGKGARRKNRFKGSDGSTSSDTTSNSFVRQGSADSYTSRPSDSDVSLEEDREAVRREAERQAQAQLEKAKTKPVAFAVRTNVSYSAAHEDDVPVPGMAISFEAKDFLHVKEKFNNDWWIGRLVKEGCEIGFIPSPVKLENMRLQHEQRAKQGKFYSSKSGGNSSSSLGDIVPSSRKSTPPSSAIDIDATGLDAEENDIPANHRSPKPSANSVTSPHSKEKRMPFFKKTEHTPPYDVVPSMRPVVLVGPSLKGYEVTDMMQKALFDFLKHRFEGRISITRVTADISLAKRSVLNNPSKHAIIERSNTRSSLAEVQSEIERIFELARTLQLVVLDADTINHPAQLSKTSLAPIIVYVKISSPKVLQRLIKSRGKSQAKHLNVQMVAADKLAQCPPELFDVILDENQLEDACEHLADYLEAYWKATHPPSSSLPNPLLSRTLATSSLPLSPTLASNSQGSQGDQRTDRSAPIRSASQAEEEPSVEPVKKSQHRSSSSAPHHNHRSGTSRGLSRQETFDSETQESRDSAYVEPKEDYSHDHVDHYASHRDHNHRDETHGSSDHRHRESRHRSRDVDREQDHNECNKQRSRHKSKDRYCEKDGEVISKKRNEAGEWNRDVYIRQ
T1 sequence (P54289 25-956 partner limits assumed): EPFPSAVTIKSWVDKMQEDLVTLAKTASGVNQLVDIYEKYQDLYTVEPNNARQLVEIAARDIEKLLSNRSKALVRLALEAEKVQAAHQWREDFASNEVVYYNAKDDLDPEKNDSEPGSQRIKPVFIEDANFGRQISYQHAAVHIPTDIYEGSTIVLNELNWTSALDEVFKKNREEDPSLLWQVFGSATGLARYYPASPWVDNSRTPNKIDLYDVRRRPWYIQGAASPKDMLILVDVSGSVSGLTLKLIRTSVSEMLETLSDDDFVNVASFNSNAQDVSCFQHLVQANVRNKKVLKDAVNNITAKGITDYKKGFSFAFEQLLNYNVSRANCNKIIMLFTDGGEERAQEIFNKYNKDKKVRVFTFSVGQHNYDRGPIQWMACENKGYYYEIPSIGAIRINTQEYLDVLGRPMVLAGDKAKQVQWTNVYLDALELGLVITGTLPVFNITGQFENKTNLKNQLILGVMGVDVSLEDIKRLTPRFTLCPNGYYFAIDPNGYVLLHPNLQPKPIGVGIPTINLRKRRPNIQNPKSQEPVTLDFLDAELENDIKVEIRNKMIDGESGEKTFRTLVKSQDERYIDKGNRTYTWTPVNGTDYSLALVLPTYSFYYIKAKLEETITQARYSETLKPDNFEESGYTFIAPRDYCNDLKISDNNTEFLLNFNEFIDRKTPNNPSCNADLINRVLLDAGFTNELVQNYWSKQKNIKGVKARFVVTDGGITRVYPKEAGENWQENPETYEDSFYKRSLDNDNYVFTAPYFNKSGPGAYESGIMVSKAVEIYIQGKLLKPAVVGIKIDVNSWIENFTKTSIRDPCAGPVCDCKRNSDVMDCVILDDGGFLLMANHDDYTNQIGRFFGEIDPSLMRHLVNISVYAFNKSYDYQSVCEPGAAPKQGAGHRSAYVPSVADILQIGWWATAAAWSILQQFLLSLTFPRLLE
T1 sequence (P54289 957-1103 partner limits assumed): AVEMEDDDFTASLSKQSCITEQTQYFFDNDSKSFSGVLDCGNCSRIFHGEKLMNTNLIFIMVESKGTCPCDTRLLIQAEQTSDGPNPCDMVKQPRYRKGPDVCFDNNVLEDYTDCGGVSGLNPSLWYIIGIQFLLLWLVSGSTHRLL

IC50 [2]	block of Ica amplitude ([2]; at 100 μM, 0.1 Hz, isolated human atrial myocytes)	reduction Ica ([2]; 0.1 μM nisoldipine added after exposure to test article, 2 cells, cell sensitivity test)	Compound	pKa [1]	Fold Difference (Parent vs. Derivative) [2]	logP [1]
			O=C1CN(/N=C/c2ccc(-c3ccc([N+](=O)[O-])cc3)o2)C(O)=N1 [Dantrolene sodium salt, reference compound]	7.11		
0.193 mM			COCCOCCOCCOCCOCCOCCOCCN1C(=O)CN(N=Cc2ccc(-c3ccc([N+](=O)[O-])cc3)o2)C1=O [mPEG7-N-Dantrolene, mPEG7-N-dantrolene]		2	
0.104 mM	21.1%		O=C1CN(/N=C/c2ccc(-c3ccc([N+](=O)[O-])cc3)o2)C(O)=N1 [Dantrolene]			
			COCCOCCOCCN1C(=O)CN(N=Cc2ccc(-c3ccc([N+](=O)[O-])cc3)o2)C1=O [mPEG3-N-Dantrolene, mPEG3-N-dantrolene]		1067	
			COCCOCCOCCOc1cc([N+](=O)[O-])ccc1-c1ccc(C=NN2CC(=O)NC2=O)o1 [mPEG3-O-Dantrolene, mPEG3-O-dantrolene]	8.69	1144	-0.6
		100%	COC(=O)C1=C(C)NC(C)=C(C(=O)OCC(C)C)C1c1ccccc1[N+](=O)[O-] (centres unmarked) [nisoldipine, reference compound]			
27 mM			COCCOCCOCCOCCOCCN1C(=O)CN(N=Cc2ccc(-c3ccc([N+](=O)[O-])cc3)o2)C1=O [mPEG5-N-Dantrolene, mPEG5-N-dantrolene]		260	

Compound	IC50 [2]	block of Ica amplitude ([2]; at 100 μM, 0.1 Hz, isolated human atrial myocytes)	reduction Ica ([2]; 0.1 μM nisoldipine added after exposure to test article, 2 cells, cell sensitivity test)	pKa [1]	Fold Difference (Parent vs. Derivative) [2]	logP [1]
COCCOCCOCCOCCOCCOCCOCCOc1cc([N+](=O)[O-])ccc1-c1ccc(C=NN2CC(=O)NC2=O)o1 [mPEG7-O-Dantrolene, mPEG7-O-dantrolene]	46.2 mM			7.32	444	0.62
COCCOCCOCCOCCOCCOc1cc([N+](=O)[O-])ccc1-c1ccc(C=NN2CC(=O)NC2=O)o1 [mPEG5-O-Dantrolene, mPEG5-O-dantrolene]	54.3 mM			7.49	522	0.74

Reference: patent US9168311B2, “Oligomer-dantrolene conjugates and related compounds” (Nektar Therapeutics, priority 2007, dated 2015)
